# Test results from ChEMBL document CHEMBL5291721, “A preclinical secondary pharmacology resource illuminates target-adverse drug reaction associations of marketed drugs” (Nat Commun, 2023).
# Assays:
# Adenosine receptor A1 = molecular target: T1, Adenosine receptor A1 (Homo sapiens, UniProt P30542)
# T1 sequence (P30542 whole entry): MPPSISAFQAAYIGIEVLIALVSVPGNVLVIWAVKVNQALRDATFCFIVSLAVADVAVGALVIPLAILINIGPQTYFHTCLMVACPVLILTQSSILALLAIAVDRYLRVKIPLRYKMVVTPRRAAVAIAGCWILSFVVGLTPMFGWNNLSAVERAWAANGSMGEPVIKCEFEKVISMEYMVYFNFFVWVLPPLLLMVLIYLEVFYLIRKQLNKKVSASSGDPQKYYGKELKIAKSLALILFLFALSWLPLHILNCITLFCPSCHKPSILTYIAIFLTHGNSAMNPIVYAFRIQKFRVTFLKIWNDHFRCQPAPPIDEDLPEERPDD
# Mu-type opioid receptor = Mu-type opioid receptor (Homo sapiens, UniProt P35372); experiment: biochemical; type: functional
# [1] = molecular target: 5-hydroxytryptamine receptor 2B (Homo sapiens, UniProt P41595)
# Glucocorticoid receptor = molecular target: T2, Glucocorticoid receptor (Homo sapiens, UniProt P04150); type: functional
# T2 sequence (P04150 whole entry): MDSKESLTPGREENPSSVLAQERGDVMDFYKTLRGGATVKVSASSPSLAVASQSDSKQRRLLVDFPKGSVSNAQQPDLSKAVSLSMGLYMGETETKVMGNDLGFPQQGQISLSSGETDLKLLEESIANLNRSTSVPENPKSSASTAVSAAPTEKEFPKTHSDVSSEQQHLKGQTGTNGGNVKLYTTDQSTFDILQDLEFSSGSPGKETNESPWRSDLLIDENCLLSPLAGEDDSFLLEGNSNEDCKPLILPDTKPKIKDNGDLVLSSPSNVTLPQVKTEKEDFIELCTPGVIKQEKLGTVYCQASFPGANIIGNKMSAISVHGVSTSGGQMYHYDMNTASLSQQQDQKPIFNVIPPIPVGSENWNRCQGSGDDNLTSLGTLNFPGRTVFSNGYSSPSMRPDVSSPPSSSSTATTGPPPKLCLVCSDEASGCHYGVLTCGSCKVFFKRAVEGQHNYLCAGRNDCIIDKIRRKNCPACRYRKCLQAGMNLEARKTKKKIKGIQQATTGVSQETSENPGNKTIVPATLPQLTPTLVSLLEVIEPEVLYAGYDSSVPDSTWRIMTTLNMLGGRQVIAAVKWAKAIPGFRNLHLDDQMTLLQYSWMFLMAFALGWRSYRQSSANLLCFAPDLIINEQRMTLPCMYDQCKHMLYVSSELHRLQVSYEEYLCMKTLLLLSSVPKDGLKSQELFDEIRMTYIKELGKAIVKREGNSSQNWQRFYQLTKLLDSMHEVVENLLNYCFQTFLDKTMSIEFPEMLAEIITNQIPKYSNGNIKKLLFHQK
# [2] = molecular target: T3, Corticotropin-releasing factor receptor 2 (Homo sapiens, UniProt Q13324)
# T3 sequence (Q13324 whole entry): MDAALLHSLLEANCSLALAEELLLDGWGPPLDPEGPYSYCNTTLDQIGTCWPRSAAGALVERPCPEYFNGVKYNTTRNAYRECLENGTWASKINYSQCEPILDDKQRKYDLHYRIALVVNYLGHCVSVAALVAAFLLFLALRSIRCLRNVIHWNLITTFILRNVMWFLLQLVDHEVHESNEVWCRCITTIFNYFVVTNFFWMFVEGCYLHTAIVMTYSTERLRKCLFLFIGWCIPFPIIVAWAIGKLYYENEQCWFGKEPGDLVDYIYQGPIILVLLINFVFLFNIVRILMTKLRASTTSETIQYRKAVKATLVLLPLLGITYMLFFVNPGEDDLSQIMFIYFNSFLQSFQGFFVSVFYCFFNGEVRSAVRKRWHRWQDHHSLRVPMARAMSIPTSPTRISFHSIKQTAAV
# [3] = molecular target: Neurotensin receptor type 1 (Homo sapiens, UniProt P30989)
# [4] = molecular target: T4, Corticotropin-releasing factor receptor 1 (Homo sapiens, UniProt P34998)
# T4 sequence (P34998 whole entry): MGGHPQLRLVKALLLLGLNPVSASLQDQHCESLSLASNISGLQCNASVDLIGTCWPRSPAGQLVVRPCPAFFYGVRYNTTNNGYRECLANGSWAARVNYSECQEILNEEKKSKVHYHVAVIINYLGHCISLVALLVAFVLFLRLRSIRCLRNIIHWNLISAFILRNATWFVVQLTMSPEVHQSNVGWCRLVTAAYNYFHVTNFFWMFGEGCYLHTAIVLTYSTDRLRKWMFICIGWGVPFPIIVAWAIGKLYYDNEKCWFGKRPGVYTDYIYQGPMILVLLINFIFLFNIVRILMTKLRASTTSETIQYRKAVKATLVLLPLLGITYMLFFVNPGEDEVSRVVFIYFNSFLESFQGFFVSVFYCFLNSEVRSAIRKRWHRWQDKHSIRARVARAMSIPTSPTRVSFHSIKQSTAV
# [5] = molecular target: Sodium channel protein type 5 subunit alpha (Homo sapiens, UniProt Q14524); type: functional, cell-based
# [6] = molecular target: T5, Muscarinic acetylcholine receptor M2 (Homo sapiens, UniProt P08172)
# T5 sequence (P08172 whole entry): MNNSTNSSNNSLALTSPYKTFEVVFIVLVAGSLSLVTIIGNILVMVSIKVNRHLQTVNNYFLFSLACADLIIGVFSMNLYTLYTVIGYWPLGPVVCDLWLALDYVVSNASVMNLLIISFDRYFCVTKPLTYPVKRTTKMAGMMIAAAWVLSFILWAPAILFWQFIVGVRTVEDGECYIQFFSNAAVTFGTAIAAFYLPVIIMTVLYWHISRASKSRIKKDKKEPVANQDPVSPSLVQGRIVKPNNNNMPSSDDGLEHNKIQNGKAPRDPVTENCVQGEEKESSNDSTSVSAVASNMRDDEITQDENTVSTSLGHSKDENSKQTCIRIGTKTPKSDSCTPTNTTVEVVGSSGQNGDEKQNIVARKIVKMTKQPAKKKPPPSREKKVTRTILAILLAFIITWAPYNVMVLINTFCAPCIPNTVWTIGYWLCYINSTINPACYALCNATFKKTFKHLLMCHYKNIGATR
# Further: assay procedure not described here.
# Sodium channel protein type 5 subunit alpha, sequence (Q14524 whole entry): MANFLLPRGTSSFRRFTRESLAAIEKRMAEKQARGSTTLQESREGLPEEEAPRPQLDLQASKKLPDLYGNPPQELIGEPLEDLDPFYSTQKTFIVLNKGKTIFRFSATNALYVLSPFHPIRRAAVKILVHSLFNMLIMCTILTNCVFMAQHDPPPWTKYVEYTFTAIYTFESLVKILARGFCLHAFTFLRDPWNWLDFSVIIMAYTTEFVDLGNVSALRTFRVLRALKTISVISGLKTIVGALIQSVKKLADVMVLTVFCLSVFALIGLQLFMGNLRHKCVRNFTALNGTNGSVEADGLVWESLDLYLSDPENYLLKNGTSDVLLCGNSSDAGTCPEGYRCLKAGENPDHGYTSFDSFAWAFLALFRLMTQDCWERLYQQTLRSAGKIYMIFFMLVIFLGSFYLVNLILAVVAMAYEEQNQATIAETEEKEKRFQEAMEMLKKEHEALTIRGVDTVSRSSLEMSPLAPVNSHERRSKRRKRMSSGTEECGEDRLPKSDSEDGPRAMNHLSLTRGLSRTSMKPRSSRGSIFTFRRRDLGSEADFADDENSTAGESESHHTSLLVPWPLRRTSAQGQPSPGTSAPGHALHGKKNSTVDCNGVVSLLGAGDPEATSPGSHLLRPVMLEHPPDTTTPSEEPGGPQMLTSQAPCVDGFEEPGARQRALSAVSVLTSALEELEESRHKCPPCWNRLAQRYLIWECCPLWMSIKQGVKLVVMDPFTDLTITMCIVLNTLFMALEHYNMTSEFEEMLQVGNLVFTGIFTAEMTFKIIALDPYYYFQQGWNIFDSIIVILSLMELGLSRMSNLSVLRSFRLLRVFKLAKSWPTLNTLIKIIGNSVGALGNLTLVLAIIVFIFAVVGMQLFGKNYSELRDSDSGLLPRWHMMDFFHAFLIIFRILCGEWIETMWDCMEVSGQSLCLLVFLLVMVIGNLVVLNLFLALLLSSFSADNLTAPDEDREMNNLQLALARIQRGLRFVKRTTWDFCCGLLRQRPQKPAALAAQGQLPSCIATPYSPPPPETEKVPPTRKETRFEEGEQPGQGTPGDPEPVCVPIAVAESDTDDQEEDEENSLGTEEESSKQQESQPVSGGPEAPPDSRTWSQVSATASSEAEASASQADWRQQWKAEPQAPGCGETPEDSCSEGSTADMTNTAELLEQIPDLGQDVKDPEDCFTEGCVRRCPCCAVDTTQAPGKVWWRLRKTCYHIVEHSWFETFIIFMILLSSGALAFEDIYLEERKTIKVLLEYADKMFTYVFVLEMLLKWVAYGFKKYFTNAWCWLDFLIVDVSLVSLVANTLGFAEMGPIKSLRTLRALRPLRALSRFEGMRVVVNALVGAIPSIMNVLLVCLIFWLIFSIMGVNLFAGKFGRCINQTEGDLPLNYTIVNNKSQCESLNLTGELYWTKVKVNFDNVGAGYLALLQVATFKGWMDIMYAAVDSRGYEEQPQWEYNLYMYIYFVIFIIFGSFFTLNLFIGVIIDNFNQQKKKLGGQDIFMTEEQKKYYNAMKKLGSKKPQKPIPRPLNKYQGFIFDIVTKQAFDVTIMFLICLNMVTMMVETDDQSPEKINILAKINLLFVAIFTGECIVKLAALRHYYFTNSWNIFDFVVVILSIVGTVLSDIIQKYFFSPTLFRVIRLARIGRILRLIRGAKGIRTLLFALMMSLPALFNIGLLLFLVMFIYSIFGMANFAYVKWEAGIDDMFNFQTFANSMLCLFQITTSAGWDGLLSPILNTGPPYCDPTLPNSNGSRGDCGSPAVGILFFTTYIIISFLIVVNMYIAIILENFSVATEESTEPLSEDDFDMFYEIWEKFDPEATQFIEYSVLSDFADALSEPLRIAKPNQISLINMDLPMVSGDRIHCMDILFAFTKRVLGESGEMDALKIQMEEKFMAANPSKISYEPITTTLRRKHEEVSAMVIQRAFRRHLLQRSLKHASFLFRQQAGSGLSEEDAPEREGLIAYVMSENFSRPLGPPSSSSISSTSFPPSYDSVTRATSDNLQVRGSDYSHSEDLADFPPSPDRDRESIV
# 5-hydroxytryptamine receptor 2B, sequence (P41595 whole entry): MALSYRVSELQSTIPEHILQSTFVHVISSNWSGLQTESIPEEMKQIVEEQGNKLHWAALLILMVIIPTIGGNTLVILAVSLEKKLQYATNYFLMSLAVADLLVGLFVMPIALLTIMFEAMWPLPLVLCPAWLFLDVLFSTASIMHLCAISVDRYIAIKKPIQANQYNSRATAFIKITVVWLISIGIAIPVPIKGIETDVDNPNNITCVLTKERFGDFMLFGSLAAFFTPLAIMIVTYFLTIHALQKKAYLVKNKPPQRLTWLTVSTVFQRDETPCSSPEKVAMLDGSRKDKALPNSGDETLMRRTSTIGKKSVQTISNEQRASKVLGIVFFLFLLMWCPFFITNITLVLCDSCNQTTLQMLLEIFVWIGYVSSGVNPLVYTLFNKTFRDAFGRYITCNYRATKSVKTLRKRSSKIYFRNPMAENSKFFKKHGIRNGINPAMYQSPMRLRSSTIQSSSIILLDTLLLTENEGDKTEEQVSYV
# Neurotensin receptor type 1, sequence (P30989 whole entry): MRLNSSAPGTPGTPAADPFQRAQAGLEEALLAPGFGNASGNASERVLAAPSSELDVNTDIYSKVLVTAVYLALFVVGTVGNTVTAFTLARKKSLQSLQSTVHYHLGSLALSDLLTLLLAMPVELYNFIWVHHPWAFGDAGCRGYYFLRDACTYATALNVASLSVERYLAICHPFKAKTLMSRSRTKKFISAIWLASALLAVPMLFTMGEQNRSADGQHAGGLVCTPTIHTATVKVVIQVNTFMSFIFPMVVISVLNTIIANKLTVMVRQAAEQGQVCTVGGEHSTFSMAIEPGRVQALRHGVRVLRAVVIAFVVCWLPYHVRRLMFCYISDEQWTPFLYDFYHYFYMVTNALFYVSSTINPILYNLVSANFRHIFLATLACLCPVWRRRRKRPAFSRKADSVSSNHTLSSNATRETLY
# Mu-type opioid receptor, sequence (P35372 whole entry): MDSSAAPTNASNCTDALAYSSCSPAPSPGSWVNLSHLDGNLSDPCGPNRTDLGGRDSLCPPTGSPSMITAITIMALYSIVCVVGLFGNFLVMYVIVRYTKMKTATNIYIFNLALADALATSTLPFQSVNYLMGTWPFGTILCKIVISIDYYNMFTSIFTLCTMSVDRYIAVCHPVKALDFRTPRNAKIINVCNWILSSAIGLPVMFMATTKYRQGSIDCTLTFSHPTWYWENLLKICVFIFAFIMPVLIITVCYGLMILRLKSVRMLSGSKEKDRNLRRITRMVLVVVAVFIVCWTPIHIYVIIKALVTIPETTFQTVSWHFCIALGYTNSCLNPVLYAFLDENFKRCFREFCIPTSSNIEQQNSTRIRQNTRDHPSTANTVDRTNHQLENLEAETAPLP
smiles,measurement,setting,value
COc1cccc2c1C(=O)c1c(O)c3c(c(O)c1C2=O)C[C@@](O)(C(=O)CO)C[C@@H]3O[C@H]1C[C@H](N)[C@H](O[C@@H]2CCCCO2)[C@H](C)O1 [PIRARUBICIN],AC50,Adenosine receptor A1,> 30 µM
O=c1[nH]cc(F)c(=O)[nH]1 [FLUOROURACIL],AC50,Adenosine receptor A1,> 30 µM
CCOC(=O)Nc1ccc(NCc2ccc(F)cc2)nc1N [FLUPIRTINE],AC50,Mu-type opioid receptor,> 30 µM
N[C@@H](Cc1cc(I)c(Oc2cc(I)c(O)c(I)c2)c(I)c1)C(=O)O [LEVOTHYROXINE],AC50,Mu-type opioid receptor,> 30 µM
CN(C)CCc1c[nH]c2ccc(CS(=O)(=O)N3CCCC3)cc12 [ALMOTRIPTAN],AC50,[1],0.51 µM
same,AC50,Mu-type opioid receptor,> 30 µM
CO[C@@]1(NC(=O)C(C(=O)O)c2ccc(O)cc2)C(=O)N2C(C(=O)O)=C(CSc3nnnn3C)CO[C@@H]21 (stereo partly drawn) [MOXALACTAM],AC50,Adenosine receptor A1,> 30 µM
CCN(CCO)CCCC(C)Nc1ccnc2cc(Cl)ccc12 (stereo not drawn) [HYDROXYCHLOROQUINE],AC50,Mu-type opioid receptor,> 30 µM
CS(=O)(=O)Nc1ccc([N+](=O)[O-])cc1Oc1ccccc1 [NIMESULIDE],AC50,Mu-type opioid receptor,> 30 µM
COC(=O)CCc1ccc(OCC(O)CNC(C)C)cc1 (stereo not drawn) [ESMOLOL],AC50,Mu-type opioid receptor,> 30 µM
C[C@@H](O)[C@H]1C(=O)N2C(C(=O)O)=C(SCCN=CN)C[C@H]12 [IMIPENEM ANHYDROUS],AC50,Glucocorticoid receptor,> 300 µM
CC(C)/N=c1\cc2n(-c3ccc(Cl)cc3)c3ccccc3nc-2cc1Nc1ccc(Cl)cc1 [CLOFAZIMINE],AC50,Glucocorticoid receptor,> 30 µM
same,AC50,Mu-type opioid receptor,> 30 µM
CN(C)CCC=C1c2ccccc2CCc2ccccc21 [AMITRIPTYLINE],AC50,[2],> 30 µM
same,AC50,[3],> 30 µM
same,AC50,[4],> 30 µM
same,AC50,[5],1.81 µM
N#Cc1ccnc(N2C(=O)CC[C@H]2C(=O)N(c2cncc(F)c2)[C@H](C(=O)NC2CC(F)(F)C2)c2ccccc2Cl)c1 [IVOSIDENIB],AC50,[5],> 50 µM
CO[C@@H]1[C@@H](OC(N)=O)[C@@H](O)[C@H](Oc2ccc3c(O)c(NC(=O)c4ccc(O)c(CC=C(C)C)c4)c(=O)oc3c2C)OC1(C)C [NOVOBIOCIN],AC50,Glucocorticoid receptor,> 30 µM
same,AC50,[5],> 50 µM
CN1CC2c3ccccc3Oc3ccc(Cl)cc3C2C1 (stereo not drawn) [ASENAPINE],AC50,Glucocorticoid receptor,> 30 µM
same,AC50,[5],2 µM
O=C(O)[C@H]1/C(=C/CO)O[C@@H]2CC(=O)N21 [CLAVULANIC ACID],AC50,Glucocorticoid receptor,> 30 µM
O=C1[C@@H]2[C@H]3CC[C@H](C3)[C@@H]2C(=O)N1C[C@@H]1CCCC[C@H]1CN1CCN(c2nsc3ccccc23)CC1 [LURASIDONE],AC50,Glucocorticoid receptor,> 10 µM
same,AC50,[5],41 µM
O=C(c1ccccc1)c1ccc2n1CCC2C(=O)O (stereo not drawn) [KETOROLAC],AC50,Mu-type opioid receptor,0.0013 µM
C[C@H](Cn1cnc2c(N)ncnc21)OCP(=O)(O)O [TENOFOVIR ANHYDROUS],AC50,Mu-type opioid receptor,> 30 µM
CC(=O)Oc1ccccc1C(=O)O [ASPIRIN],AC50,[2],> 30 µM
same,AC50,[1],> 10 µM
same,AC50,[3],> 30 µM
same,AC50,[4],> 30 µM
same,AC50,[5],> 30 µM
OCCOCCN1CCN(C(c2ccccc2)c2ccc(Cl)cc2)CC1 (stereo not drawn) [HYDROXYZINE],AC50,[2],> 30 µM
same,AC50,[1],0.157 µM
same,AC50,[3],> 30 µM
same,AC50,[6],9.04 µM
same,AC50,[4],> 30 µM
C[C@H](CCC(=O)O)[C@H]1CC[C@H]2[C@@H]3[C@H](O)C[C@@H]4C[C@H](O)CC[C@]4(C)[C@H]3CC[C@]12C [CHENODIOL],AC50,[5],> 50 µM
CN(C)CCCC1(c2ccc(F)cc2)OCc2cc(C#N)ccc21 (stereo not drawn) [CITALOPRAM],AC50,[2],> 30 µM
same,AC50,[1],0.273 µM
same,AC50,[3],> 30 µM
same,AC50,Adenosine receptor A1,> 30 µM
same,AC50,[4],> 30 µM
same,AC50,[5],> 30 µM
NCCCNCCSP(=O)(O)O [AMIFOSTINE],AC50,Mu-type opioid receptor,> 30 µM
OC[C@H]1NC[C@H](O)[C@@H](O)[C@H]1O,AC50,Adenosine receptor A1,> 30 µM
CCCCCCCCCCCCCCCC(=O)OC[C@H](COP(=O)([O-])OCC[N+](C)(C)C)OC(=O)CCCCCCCCCCCCCCC [COLFOSCERIL PALMITATE],AC50,Adenosine receptor A1,> 30 µM
CCOC(=O)[C@H](CCc1ccccc1)N[C@@H](C)C(=O)N1Cc2ccccc2C[C@H]1C(=O)O,AC50,[2],> 30 µM
same,AC50,[1],> 10 µM
same,AC50,[3],> 30 µM
same,AC50,[6],> 10 µM
same,AC50,[4],> 30 µM
same,AC50,[5],> 30 µM
C[C@]12CCC(=O)C=C1CC[C@H]1[C@@H]3CC[C@](O)(C(=O)CO)[C@@]3(C)C[C@H](O)[C@@]12F [FLUDROCORTISONE],AC50,[2],> 30 µM
same,AC50,[1],> 10 µM
same,AC50,[3],> 30 µM
same,AC50,[6],> 10 µM
same,AC50,[4],> 30 µM
CC[N+](CC)(CCNC(=O)C(=O)NCC[N+](CC)(CC)Cc1ccccc1Cl)Cc1ccccc1Cl [AMBENONIUM],AC50,Mu-type opioid receptor,4.3 µM
CC(C)C[C@H](NC(=O)[C@H](Cc1ccccc1)NC(=O)c1cnccn1)B(O)O [BORTEZOMIB],AC50,Mu-type opioid receptor,> 30 µM
CCN(CC)CCn1c(=O)c(Cc2ccc(OC)cc2)nc2ccccc21 [CAROVERINE],AC50,Mu-type opioid receptor,> 30 µM
CC(C)(CO)c1cc2cc(NC(=O)C3(c4ccc5c(c4)OC(F)(F)O5)CC3)c(F)cc2n1C[C@@H](O)CO [TEZACAFTOR],AC50,Glucocorticoid receptor,> 30 µM
same,AC50,[5],42 µM
CN(C)CCOC(c1ccc(Cl)cc1)c1ccccn1 (stereo not drawn) [CARBINOXAMINE],AC50,Mu-type opioid receptor,> 30 µM
CCOc1ccccc1OCCN[C@H](C)Cc1ccc(OC)c(S(N)(=O)=O)c1 [TAMSULOSIN],AC50,Mu-type opioid receptor,3.8 µM
Nc1c2c(nc3ccccc13)CCCC2O (stereo not drawn) [VELNACRINE],AC50,Glucocorticoid receptor,14 µM
Cc1c(C)c2c(c(C)c1O)CCC(C)(COc1ccc(CC3SC(=O)NC3=O)cc1)O2 (stereo not drawn) [TROGLITAZONE],AC50,[2],> 30 µM
same,AC50,[3],> 30 µM
same,AC50,[4],> 30 µM
same,AC50,Mu-type opioid receptor,> 30 µM
CC(=O)NC[C@H]1CN(c2ccc(N3CCOCC3)c(F)c2)C(=O)O1 [LINEZOLID],AC50,Mu-type opioid receptor,> 30 µM
same,AC50,[5],> 50 µM
Cn1cnc2c(F)c(Nc3ccc(Br)cc3F)c(C(=O)NOCCO)cc21 [BINIMETINIB],AC50,Glucocorticoid receptor,> 30 µM
same,AC50,[5],> 30 µM
Nc1nnc(-c2cccc(Cl)c2Cl)c(N)n1 [LAMOTRIGINE],AC50,[2],> 30 µM
same,AC50,[1],> 10 µM
same,AC50,[3],> 30 µM
same,AC50,[6],> 10 µM
same,AC50,[4],> 30 µM
same,AC50,[5],> 50 µM
CCC[C@@]1(CCc2ccccc2)CC(O)=C([C@H](CC)c2cccc(NS(=O)(=O)c3ccc(C(F)(F)F)cn3)c2)C(=O)O1,AC50,Glucocorticoid receptor,> 30 µM
same,AC50,[5],> 50 µM
CCOCC(O)COc1ccc(NC(=O)CC[S+](C)C)cc1 (stereo not drawn),AC50,Glucocorticoid receptor,> 30 µM
